Experimental data taken from patent US11117892B2, “Pyrrolo-pyridine derivative compound, method for preparing same, and pharmaceutical composition containing same as active ingredient for prevention or treatment of protein kinase-related diseases” (DAEGU-GYEONGBUK MEDICAL INNOVATION FOUNDATION, priority 2017, dated 2021).

Assays:
Assay in all cases: scanMAX Kinase assay panel
Assay type in all cases: binding
SIK = SIK (Homo sapiens (Human), UniProt P57059); conditions: read-out: % control
How it was run: (§1)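 The % control figures are compound readings scaled so that DMSO-treated wells correspond to 100% and the positive control corresponds to 0%. They were obtained on the scanMAX kinase panel.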

PIK3C2B = PIK3C2B (Homo sapiens (Human), UniProt O00750); conditions: read-out: % control
How it was run: as §1

FLT4 = FLT4 (Homo sapiens (Human), UniProt P35916); conditions: read-out: % control
How it was run: as §1

EPHA4 = EPHA4 (Homo sapiens (Human), UniProt P54764); conditions: read-out: % control
EPHA4, sequence (P54764 20-986): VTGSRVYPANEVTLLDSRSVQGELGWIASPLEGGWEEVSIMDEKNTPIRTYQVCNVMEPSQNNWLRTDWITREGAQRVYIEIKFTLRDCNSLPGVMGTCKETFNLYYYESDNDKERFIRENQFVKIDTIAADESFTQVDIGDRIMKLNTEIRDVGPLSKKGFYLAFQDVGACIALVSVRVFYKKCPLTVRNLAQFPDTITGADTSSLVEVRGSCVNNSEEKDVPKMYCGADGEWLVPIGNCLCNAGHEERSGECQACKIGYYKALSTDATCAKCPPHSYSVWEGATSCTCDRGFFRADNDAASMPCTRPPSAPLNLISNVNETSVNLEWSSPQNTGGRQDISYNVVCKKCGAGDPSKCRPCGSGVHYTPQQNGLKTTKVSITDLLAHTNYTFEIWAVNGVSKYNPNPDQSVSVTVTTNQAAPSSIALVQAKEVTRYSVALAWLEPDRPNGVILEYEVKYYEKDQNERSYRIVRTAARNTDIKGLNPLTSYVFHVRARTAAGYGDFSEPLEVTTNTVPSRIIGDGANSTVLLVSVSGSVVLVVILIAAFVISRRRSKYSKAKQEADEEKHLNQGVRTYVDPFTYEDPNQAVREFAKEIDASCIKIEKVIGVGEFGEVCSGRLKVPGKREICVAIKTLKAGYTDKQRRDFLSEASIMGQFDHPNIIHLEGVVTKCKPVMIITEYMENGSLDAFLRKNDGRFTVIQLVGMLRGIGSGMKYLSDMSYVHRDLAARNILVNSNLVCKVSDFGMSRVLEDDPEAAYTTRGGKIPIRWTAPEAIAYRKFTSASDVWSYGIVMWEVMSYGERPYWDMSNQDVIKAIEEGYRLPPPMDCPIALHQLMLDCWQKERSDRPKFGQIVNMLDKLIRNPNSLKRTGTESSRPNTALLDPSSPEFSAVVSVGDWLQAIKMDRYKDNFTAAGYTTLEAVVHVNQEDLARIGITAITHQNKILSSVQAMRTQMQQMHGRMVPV
How it was run: as §1

MLK1 = MLK1 (Homo sapiens (Human), UniProt P80192); conditions: read-out: % control
MLK1, sequence (P80192 whole entry): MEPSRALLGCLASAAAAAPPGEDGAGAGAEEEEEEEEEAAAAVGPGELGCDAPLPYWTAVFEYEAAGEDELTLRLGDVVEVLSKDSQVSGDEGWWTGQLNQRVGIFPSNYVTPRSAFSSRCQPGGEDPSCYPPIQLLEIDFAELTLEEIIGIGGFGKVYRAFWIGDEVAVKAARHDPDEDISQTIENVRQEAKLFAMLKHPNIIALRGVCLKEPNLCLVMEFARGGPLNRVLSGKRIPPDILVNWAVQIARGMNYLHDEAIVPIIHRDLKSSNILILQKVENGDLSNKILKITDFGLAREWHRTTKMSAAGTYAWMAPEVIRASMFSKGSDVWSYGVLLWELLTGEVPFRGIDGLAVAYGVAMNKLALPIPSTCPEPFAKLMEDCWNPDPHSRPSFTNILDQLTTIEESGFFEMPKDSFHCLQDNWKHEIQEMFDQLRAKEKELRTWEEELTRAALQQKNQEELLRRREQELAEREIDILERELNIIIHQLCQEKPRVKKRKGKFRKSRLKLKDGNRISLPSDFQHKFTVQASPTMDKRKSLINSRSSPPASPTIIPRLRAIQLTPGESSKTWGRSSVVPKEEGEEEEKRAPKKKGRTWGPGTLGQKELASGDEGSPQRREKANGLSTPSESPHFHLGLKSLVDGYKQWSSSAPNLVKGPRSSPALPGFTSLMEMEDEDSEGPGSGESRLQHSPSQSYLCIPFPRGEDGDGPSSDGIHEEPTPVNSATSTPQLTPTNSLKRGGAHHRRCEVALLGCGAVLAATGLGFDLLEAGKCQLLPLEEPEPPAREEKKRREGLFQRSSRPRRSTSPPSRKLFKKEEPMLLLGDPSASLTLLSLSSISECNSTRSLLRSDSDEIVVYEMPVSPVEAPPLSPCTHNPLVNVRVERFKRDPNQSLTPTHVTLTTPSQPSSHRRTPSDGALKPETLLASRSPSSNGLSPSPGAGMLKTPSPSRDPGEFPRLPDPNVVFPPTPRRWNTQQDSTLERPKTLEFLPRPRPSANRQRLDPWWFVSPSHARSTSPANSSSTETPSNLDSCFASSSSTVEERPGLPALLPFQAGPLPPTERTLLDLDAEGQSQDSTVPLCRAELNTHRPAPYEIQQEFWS
How it was run: as §1

PIK3CG = PIK3CG (Homo sapiens (Human), UniProt P48736); conditions: read-out: % control
How it was run: as §1

p38-beta = p38-beta (Homo sapiens (Human), UniProt Q15759); conditions: read-out: % control
How it was run: as §1

MAP3K15 = MAP3K15 (Homo sapiens (Human), UniProt Q6ZN16); conditions: read-out: % control
How it was run: as §1

CDK4 = CDK4 (Homo sapiens (Human), UniProt P11802); conditions: read-out: % control
How it was run: as §1

BRK = BRK (Homo sapiens (Human), UniProt Q13882); conditions: read-out: % control
BRK, sequence (Q13882 whole entry): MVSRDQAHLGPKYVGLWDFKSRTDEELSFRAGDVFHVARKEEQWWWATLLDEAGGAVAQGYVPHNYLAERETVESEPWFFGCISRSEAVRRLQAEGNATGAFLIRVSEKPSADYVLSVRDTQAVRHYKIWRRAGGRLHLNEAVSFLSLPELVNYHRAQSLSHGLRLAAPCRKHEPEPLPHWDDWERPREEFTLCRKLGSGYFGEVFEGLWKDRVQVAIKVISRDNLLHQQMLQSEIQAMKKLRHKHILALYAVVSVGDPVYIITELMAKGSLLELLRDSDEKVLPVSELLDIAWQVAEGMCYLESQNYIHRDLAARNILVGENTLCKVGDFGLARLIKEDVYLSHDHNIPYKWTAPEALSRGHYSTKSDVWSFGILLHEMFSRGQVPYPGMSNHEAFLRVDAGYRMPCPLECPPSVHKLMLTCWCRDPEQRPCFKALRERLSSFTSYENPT
How it was run: as §1

WNK2 = WNK2 (Homo sapiens (Human), UniProt Q9Y3S1); conditions: read-out: % control
How it was run: as §1

[1] = target: RSK2(Kin.Dom.2-C-terminal) (Homo sapiens (Human), UniProt P51812); conditions: read-out: % control
How it was run: as §1

CDK4-cyclinD3 = CDK4-cyclinD3 (Homo sapiens (Human), UniProt P11802); conditions: read-out: % control
How it was run: as §1

MARK3 = MARK3 (Homo sapiens (Human), UniProt P27448); conditions: read-out: % control
How it was run: as §1

MEK5 = MEK5 (Homo sapiens (Human), UniProt Q13163); conditions: read-out: % control
How it was run: as §1

HIPK3 = HIPK3 (Homo sapiens (Human), UniProt Q9H422); conditions: read-out: % control
HIPK3, sequence (Q9H422 whole entry): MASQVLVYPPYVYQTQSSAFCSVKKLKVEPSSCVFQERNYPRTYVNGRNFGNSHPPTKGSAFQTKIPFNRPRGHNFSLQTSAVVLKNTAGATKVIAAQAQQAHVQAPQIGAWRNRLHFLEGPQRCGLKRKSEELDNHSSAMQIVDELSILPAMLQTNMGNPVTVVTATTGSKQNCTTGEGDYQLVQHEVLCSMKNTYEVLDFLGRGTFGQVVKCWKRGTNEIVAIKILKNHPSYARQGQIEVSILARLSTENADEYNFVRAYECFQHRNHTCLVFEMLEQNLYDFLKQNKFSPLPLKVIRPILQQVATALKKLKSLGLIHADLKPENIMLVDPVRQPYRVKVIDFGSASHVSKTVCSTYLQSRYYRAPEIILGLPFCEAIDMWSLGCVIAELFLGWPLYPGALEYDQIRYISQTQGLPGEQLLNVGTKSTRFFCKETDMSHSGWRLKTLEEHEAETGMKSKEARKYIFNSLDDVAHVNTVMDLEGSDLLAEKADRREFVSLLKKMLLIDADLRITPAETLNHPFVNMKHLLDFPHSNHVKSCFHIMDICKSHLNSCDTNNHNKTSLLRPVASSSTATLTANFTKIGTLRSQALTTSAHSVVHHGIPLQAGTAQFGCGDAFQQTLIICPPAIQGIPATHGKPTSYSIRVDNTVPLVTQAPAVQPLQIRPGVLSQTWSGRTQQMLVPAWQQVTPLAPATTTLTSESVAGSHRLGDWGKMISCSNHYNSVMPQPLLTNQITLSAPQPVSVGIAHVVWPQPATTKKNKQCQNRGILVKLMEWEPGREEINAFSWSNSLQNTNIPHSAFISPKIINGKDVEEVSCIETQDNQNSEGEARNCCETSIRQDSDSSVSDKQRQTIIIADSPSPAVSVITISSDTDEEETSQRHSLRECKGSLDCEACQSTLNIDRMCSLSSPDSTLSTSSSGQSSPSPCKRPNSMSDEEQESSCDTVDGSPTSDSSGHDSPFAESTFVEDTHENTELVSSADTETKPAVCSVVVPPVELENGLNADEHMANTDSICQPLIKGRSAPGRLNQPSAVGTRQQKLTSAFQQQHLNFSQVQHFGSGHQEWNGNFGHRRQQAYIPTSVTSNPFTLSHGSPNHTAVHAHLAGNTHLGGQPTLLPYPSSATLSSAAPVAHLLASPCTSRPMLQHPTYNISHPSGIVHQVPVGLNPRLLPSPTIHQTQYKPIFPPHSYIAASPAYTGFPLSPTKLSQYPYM
How it was run: as §1

EPHB2 = EPHB2 (Homo sapiens (Human), UniProt P29323); conditions: read-out: % control
How it was run: as §1

MKNK1 = MKNK1 (Homo sapiens (Human), UniProt Q9BUB5); conditions: read-out: % control
How it was run: as §1

MYO3A = MYO3A (Homo sapiens (Human), UniProt Q8NEV4); conditions: read-out: % control
How it was run: as §1

LKB1 = LKB1 (Homo sapiens (Human), UniProt Q15831); conditions: read-out: % control
How it was run: as §1

[2] = target: ABL1(Y253F)-phosphorylated (Homo sapiens (Human), UniProt P00519, Y253F); conditions: read-out: % control
How it was run: as §1

DLK = DLK (Homo sapiens (Human), UniProt Q12852); conditions: read-out: % control
How it was run: as §1

RIOK2 = RIOK2 (Homo sapiens (Human), UniProt Q9BVS4); conditions: read-out: % control
How it was run: as §1

p38-alpha = p38-alpha (Homo sapiens (Human), UniProt Q16539); conditions: read-out: % control
How it was run: as §1

FLT3(K663Q) = FLT3(K663Q) (Homo sapiens (Human), UniProt P36888, K663Q); conditions: read-out: % control
How it was run: as §1

PIK3CA = PIK3CA (Homo sapiens (Human), UniProt P42336); conditions: read-out: % control
How it was run: as §1

PRKCE = PRKCE (Homo sapiens (Human), UniProt Q02156); conditions: read-out: % control
How it was run: as §1

ALK = ALK (Homo sapiens (Human), UniProt Q9UM73); conditions: read-out: % control
How it was run: as §1

PAK6 = PAK6 (Homo sapiens (Human), UniProt Q9NQU5); conditions: read-out: % control
How it was run: as §1

PKMYT1 = PKMYT1 (Homo sapiens (Human), UniProt Q99640); conditions: read-out: % control
How it was run: as §1

MARK1 = MARK1 (Homo sapiens (Human), UniProt Q9P0L2); conditions: read-out: % control
How it was run: as §1

MEK1 = MEK1 (Homo sapiens (Human), UniProt Q02750); conditions: read-out: % control
MEK1, sequence (Q02750 whole entry): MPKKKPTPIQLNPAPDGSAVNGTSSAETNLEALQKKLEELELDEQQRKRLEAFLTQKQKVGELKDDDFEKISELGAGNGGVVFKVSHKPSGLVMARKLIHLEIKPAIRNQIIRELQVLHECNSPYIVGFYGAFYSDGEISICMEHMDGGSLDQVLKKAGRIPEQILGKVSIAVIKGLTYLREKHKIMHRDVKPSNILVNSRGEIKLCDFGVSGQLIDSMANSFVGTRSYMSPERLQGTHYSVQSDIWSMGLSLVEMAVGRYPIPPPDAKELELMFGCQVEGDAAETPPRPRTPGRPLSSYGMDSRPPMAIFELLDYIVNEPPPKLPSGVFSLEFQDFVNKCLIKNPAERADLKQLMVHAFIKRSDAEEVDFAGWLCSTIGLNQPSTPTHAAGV
How it was run: as §1

EPHA2 = EPHA2 (Homo sapiens (Human), UniProt P29317); conditions: read-out: % control
EPHA2, sequence (P29317 24-976): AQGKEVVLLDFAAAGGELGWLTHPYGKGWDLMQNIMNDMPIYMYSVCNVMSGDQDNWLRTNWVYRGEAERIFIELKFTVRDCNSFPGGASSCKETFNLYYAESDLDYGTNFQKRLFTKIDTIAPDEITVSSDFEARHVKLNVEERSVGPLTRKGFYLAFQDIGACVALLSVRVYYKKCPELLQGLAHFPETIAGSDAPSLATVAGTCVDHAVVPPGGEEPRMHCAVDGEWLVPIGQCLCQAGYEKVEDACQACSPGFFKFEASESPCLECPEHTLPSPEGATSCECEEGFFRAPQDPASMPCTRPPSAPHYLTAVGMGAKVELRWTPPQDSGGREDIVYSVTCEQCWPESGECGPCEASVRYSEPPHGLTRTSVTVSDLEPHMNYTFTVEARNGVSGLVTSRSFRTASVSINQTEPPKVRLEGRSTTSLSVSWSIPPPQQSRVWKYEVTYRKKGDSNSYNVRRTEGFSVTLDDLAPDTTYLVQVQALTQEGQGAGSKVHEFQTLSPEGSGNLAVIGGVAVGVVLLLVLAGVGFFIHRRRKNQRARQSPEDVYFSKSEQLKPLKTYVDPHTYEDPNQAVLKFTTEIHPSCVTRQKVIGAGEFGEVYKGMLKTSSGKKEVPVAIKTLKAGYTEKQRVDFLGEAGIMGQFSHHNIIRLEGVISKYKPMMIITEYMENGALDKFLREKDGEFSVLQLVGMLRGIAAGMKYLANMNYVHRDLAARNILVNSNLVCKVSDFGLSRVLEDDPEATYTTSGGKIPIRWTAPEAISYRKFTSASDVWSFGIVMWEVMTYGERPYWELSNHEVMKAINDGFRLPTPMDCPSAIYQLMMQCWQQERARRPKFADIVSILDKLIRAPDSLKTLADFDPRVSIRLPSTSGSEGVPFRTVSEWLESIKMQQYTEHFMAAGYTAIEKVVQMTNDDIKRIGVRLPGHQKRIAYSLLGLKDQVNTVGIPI
How it was run: as §1

FLT3(ITD, D835V) = conditions: 1 uM
How it was run: as §1

NEK2 = NEK2 (Homo sapiens (Human), UniProt P51955); conditions: read-out: % control
How it was run: as §1

PIK3CA(E542K) = PIK3CA(E542K) (Homo sapiens (Human), UniProt P42336, E542K); conditions: read-out: % control
How it was run: as §1

KIT(V559D, T670I) = KIT(V559D, T670I) (Homo sapiens (Human), UniProt P10721, T670I/V559D); conditions: read-out: % control
How it was run: as §1

DRAK2 = DRAK2 (Homo sapiens (Human), UniProt O94768); conditions: read-out: % control
How it was run: as §1

PAK2 = PAK2 (Homo sapiens (Human), UniProt Q13177); conditions: read-out: % control
How it was run: as §1

## CCNc1cc(Nc2ccc(C(=O)N3CCC(N4CCOCC4)CC3)cc2OC)nc2[nH]cc(C#N)c12 [Example 18, 4-(ethylamino)-6-((2-methoxy-4-(4-morpholinopiperidine-1-carbonyl)phenyl)amino)-1H-pyrrolo[2,3-b]pyridine-3-carbonitrile]
SIK
  remaining binding at 1 µM: 100%
PIK3C2B
  remaining binding at 1 µM: 100%
FLT4
  remaining binding at 1 µM: 100%
EPHA4
  remaining binding at 1 µM: 98%
MLK1
  remaining binding at 1 µM: 100%
PIK3CG
  remaining binding at 1 µM: 100%
p38-beta
  remaining binding at 1 µM: 77%
MAP3K15
  remaining binding at 1 µM: 53%
CDK4
  remaining binding at 1 µM: 100%
BRK
  remaining binding at 1 µM: 95%
WNK2
  remaining binding at 1 µM: 91%
[1]
  remaining binding at 1 µM: 100%
CDK4-cyclinD3
  remaining binding at 1 µM: 100%
MARK3
  remaining binding at 1 µM: 100%
MEK5
  remaining binding at 1 µM: 77%
HIPK3
  remaining binding at 1 µM: 74%
EPHB2
  remaining binding at 1 µM: 87%
MKNK1
  remaining binding at 1 µM: 93%
MYO3A
  remaining binding at 1 µM: 71%
LKB1
  remaining binding at 1 µM: 62%
[2]
  remaining binding at 1 µM: 89%
DLK
  remaining binding at 1 µM: 79%
RIOK2
  remaining binding at 1 µM: 63%
p38-alpha
  remaining binding at 1 µM: 100%
FLT3(K663Q)
  remaining binding at 1 µM: 84%
PIK3CA
  remaining binding at 1 µM: 100%
PRKCE
  remaining binding at 1 µM: 77%
ALK
  remaining binding at 1 µM: 2.7%
PAK6
  remaining binding at 1 µM: 98%
PKMYT1
  remaining binding at 1 µM: 90%
MARK1
  remaining binding at 1 µM: 84%
MEK1
  remaining binding at 1 µM: 19%
EPHA2
  remaining binding at 1 µM: 97%
FLT3(ITD, D835V)
  % control: 100%
NEK2
  remaining binding at 1 µM: 100%
PIK3CA(E542K)
  remaining binding at 1 µM: 96%
KIT(V559D, T670I)
  remaining binding at 1 µM: 48%
DRAK2
  remaining binding at 1 µM: 27%
PAK2
  remaining binding at 1 µM: 82%

## CCNc1cc(Nc2ccc(C(=O)N3CCC(N4CCOCC4)CC3)cc2OC)nc2[nH]cc(C(F)(F)F)c12 [Example 57, (4-((4-(ethylamino)-3-(trifluoromethyl)-1H-pyrrolo[2,3-b]pyridin-6-yl)amino)-3-methoxyphenyl) (4-morpholinopiperidin-1-yl)methanone]
SIK
  remaining binding at 1 µM: 90%
PIK3C2B
  remaining binding at 1 µM: 78%
FLT4
  remaining binding at 1 µM: 99%
EPHA4
  remaining binding at 1 µM: 94%
MLK1
  remaining binding at 1 µM: 100%
PIK3CG
  remaining binding at 1 µM: 87%
p38-beta
  remaining binding at 1 µM: 76%
MAP3K15
  remaining binding at 1 µM: 100%
CDK4
  remaining binding at 1 µM: 100%
BRK
  remaining binding at 1 µM: 94%
WNK2
  remaining binding at 1 µM: 100%
[1]
  remaining binding at 1 µM: 100%
CDK4-cyclinD3
  remaining binding at 1 µM: 100%
MARK3
  remaining binding at 1 µM: 92%
MEK5
  remaining binding at 1 µM: 99%
HIPK3
  remaining binding at 1 µM: 71%
EPHB2
  remaining binding at 1 µM: 100%
MKNK1
  remaining binding at 1 µM: 100%
MYO3A
  remaining binding at 1 µM: 70%
LKB1
  remaining binding at 1 µM: 92%
[2]
  remaining binding at 1 µM: 100%
DLK
  remaining binding at 1 µM: 100%
RIOK2
  remaining binding at 1 µM: 100%
p38-alpha
  remaining binding at 1 µM: 83%
FLT3(K663Q)
  remaining binding at 1 µM: 94%
PIK3CA
  remaining binding at 1 µM: 87%
PRKCE
  remaining binding at 1 µM: 64%
ALK
  remaining binding at 1 µM: 2.5%
PAK6
  remaining binding at 1 µM: 78%
PKMYT1
  remaining binding at 1 µM: 96%
MARK1
  remaining binding at 1 µM: 82%
MEK1
  remaining binding at 1 µM: 100%
EPHA2
  remaining binding at 1 µM: 83%
FLT3(ITD, D835V)
  % control: 100%
NEK2
  remaining binding at 1 µM: 94%
PIK3CA(E542K)
  remaining binding at 1 µM: 100%
KIT(V559D, T670I)
  remaining binding at 1 µM: 78%
DRAK2
  remaining binding at 1 µM: 69%
PAK2
  remaining binding at 1 µM: 40%
